ChEMBL document CHEMBL1143732, “3-Hydroxy-1,5-dihydro-pyrrol-2-one derivatives as advanced inhibitors of HIV integrase” (Bioorg Med Chem, 2007)
pEC50, pIC50: −log10 of the molar value.

What was measured:
[1] = Inhibition of HIV integrase by MWPA-Mn enzymatic assay; design: species or system Human immunodeficiency virus
[2] = Inhibition of HIV integrase by MWPA-Mg enzymatic assay; design: species or system Human immunodeficiency virus
[3] = tested on: Human immunodeficiency virus; experiment: Antiviral activity against HIV; assay type: functional, organism-based; settings: Human immunodeficiency virus 1

Compound	pIC50 [1]	pIC50 [2]	pEC50 [3]
O=C(O)/C(O)=C/c1cc(OCc2ccc(F)cc2)ccn1	7.85	7.03	5.10
CN1CC(C(=O)c2ccc(Cc3ccc(F)cc3)o2)=C(O)C1=O		7.09	6.20
O=C(O)/C(O)=C/c1ccc(Cc2ccc(F)cc2)cn1	7.02	5.85	5.06
O=C(O)/C(O)=C/c1cc(CCc2ccc(F)cc2)ccn1	7.23	5.74	4.57
NC(=O)/C(O)=C/c1cc(CCc2ccccc2)ncn1	4.15	5.17	4.31
CN1CC(c2ccc(Oc3ccc(F)cc3)cn2)=C(O)C1=O	> 7.68	7.10	5.72
O=C(C1=C(O)C(=O)N(Cc2ccccc2)C1)c1ccc(Cc2ccc(F)cc2)o1		6.74	5.13
CC(C)N1CC(C(=O)c2ccc(Cc3ccc(F)cc3)o2)=C(O)C1=O		7.10	6.26
CNC(=O)/C(O)=C/c1cc(CCc2ccccc2)ncn1	4.41	4.96	4.62
O=C1NCC(C(=O)c2ccc(Cc3ccc(F)cc3)o2)=C1O		7.00	6.03
O=C(O)/C(O)=C/c1ccc(Oc2ccc(F)cc2)cn1	6.96	5.06	< 4.14
O=C(O)/C(O)=C/c1cc(CCc2ccccc2)ncn1	7.43	5.02	4.47
O=C(C1=C(O)C(=O)N(C2CCCC2)C1)c1ccc(Cc2ccc(F)cc2)o1		6.89	5.82
O=C(O)/C(O)=C/c1ccc(OCc2ccc(F)cc2)cn1	7.18	6.32	4.34
O=C(/C(O)=C/c1cc(CCc2ccccc2)ncn1)N1CCOCC1	3.58	3.63	< 4.23
O=C(C1=C(O)C(=O)N(CCN2CCOCC2)C1)c1ccc(Cc2ccc(F)cc2)o1		6.74	5.47
O=C(/C=C(\O)c1nc[nH]n1)c1ccc(Cc2ccc(F)cc2)o1 [S-1360]			6.70
O=C(C1=C(O)C(=O)N(CCO)C1)c1ccc(Cc2ccc(F)cc2)o1		7.12	5.26
COc1ccc(N2CC(C(=O)c3ccc(Cc4ccc(F)cc4)o3)=C(O)C2=O)cc1		6.77	4.89

More lines, now with the values ahead:

pIC50 [1]	pIC50 [2]	pEC50 [3]	Compound
	6.57	5.05	CCCN1CC(c2cc(OCc3ccc(F)cc3)ncn2)=C(O)C1=O
> 7.68	7.43	6.77	CN1CC(c2ccc(Cc3ccc(F)cc3)cn2)=C(O)C1=O
	6.85	5.48	COc1ccc(CN2CC(c3cc(OCc4ccc(F)cc4)ncn3)=C(O)C2=O)cc1
6.52	7.20	6.49	CN1CC(c2cc(OCc3ccc(F)cc3)ncn2)=C(O)C1=O
> 7.68	7.52	6.74	CN1CC(c2ccc(OCc3ccc(F)cc3)cn2)=C(O)C1=O
	7.34	6.42	O=C1C(O)=C(c2cc(OCc3ccc(F)cc3)ncn2)CN1CCO
	6.80	6.17	COCCN1CC(C(=O)c2ccc(Cc3ccc(F)cc3)o2)=C(O)C1=O
	7.28	6.33	COCCN1CC(c2cc(OCc3ccc(F)cc3)ncn2)=C(O)C1=O
6.49	6.49	6.10	CN1CC(c2cc(CCc3ccc(F)cc3)ncn2)=C(O)C1=O
	7.09	5.85	CC(C)N1CC(c2cc(OCc3ccc(F)cc3)ncn2)=C(O)C1=O
	7.40	6.62	O=C1NCC(c2cc(OCc3ccc(F)cc3)ncn2)=C1O
